One test relates to U937 cells. Kind of test: U937 Cell TNFα Release Assay. To be noted: mixture of stereoisomers implied unless otherwise noted. Type of test: cell-based, human.
For a further test, the target named is MK-2 (Homo sapiens, UniProt P49137). Kind of test: Determination of MK-2 IC50 (phosphorylation of HSP-peptide, anion exchange resin capture assay). It counts as biochemical. Conditions: additional values are replicate IC50 experiments; mixture of stereoisomers implied unless otherwise noted; read-out: MK-2 Avg. IC50.
Sequence of MK-2 (P49137 whole entry, species assumed): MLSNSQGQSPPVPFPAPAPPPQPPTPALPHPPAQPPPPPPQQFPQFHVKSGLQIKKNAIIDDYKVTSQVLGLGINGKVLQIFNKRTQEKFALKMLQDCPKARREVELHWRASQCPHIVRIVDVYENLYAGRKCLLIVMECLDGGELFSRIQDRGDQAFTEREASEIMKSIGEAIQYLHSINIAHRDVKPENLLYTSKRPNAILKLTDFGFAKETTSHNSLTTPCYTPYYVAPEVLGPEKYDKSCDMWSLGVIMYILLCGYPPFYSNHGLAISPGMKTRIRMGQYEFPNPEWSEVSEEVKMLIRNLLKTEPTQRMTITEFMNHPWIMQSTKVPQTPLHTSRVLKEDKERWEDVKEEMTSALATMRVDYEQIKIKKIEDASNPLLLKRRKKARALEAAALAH
[1] abbreviates: Homo sapiens, U-937, 4 h, LPS-stimulated differentiated U937 cells, TNFα by ELISA, read-out: TNF Release Assay Avg. IC50.
Setting [2] is: Homo sapiens, U-937, LPS-stimulated differentiated U937 cells, TNFα by ELISA, read-out: TNF Release Assay Avg. IC50.
The mark [3] stands for this setting: Homo sapiens, U-937, 4 h, read-out: TNF Release Assay Avg. IC50, LPS-stimulated differentiated U937 cells, TNFα by ELISA.

Each structure is given as a SMILES string. Structures can show the parent of a compound that is named as a salt. Where two headings read alike, the source gives them in different places.

For the compound `O=C(O)C1NCCc2c1[nH]c1ccc(OCCCCCl)cc21` (stereo not drawn) [Example 79, 6-(4-chlorobutoxy)-2,3,4,9-tetrahydro-1H-beta-carboline-1-carboxylic acid hydrochloride], the IC50 in the test on U937 cells (setting [1]) was greater than 100 µM; on MK-2 it was 17.4 µM.
On to `COc1ccc2[nH]c3c(=O)n(/N=C/c4ccccc4)c(=O)[nH]c3c2c1` [Example 265, 8-methoxy-3-{[(1E)-phenylmethylidene]amino}-1H-pyrimido[5,4-b]indole-2,4(3H,5H)-dione], for which the IC50 was greater than 100 µM in the test with U937 cells (setting [2]) and greater than 200 µM at MK-2.
In the case of `COc1ccc2[nH]c3c(c2c1)C(C(F)(F)F)CNC3C(=O)O` (stereo not drawn) [Example 66, 6-methoxy-4-(trifluoromethyl)-2,3,4,9-tetrahydro-1H-beta-carboline-1-carboxylic acid], the 50% inhibitory concentration (IC50) with U937 cells (setting [1]) was 41.3 µM; at MK-2 it was 13.8 µM.
As for `COc1ccc2[nH]c3c(c2c1)CCCCC3=NO` [Example 49], the IC50 in the test on U937 cells (setting [2]) amounted to 2.89 µM; on MK-2, 6.9 µM.
In the case of `COc1ccc2[nH]c3c(c2c1)CCC/C3=N\O` [Example 19, (1E)-6-methoxy-2,3,4,9-tetrahydro-1H-carbazol-1-one oxime], the IC50 came to 1.89 µM in the test with U937 cells (setting [2]) and 2.1 µM on MK-2.
As to `COc1ccc2[nH]c3c(c2c1)CCN(C)C3C(N)=O` (stereo not drawn) [Example 170, 6-methoxy-2-methyl-2,3,4,9-tetrahydro-1H-beta-carboline-1-carboxamide], the values for the concentration for half-maximal inhibition (IC50) with U937 cells (setting [3]) and at MK-2 were greater than 100 µM and greater than 200 µM, respectively.
For `COc1ccc2[nH]c3c(c2c1)C(C)(C)CNC3C(=O)O` (stereo not drawn) [Example 73, 6-methoxy-4,4-dimethyl-2,3,4,9-tetrahydro-1H-beta-carboline-1-carboxylic acid], the half-inhibitory concentration (IC50) is greater than 100 µM in the test with U937 cells (setting [1]) and 15.8 µM on MK-2.
For the compound `COC(=O)C1c2[nH]c3ccc(O)cc3c2CCN1C` (stereo not drawn) [Example 129, methyl 6-hydroxy-2-methyl-2,3,4,9-tetrahydro-1H-beta-carboline-1-carboxylate], the IC50 came to 0.523 µM in the test with U937 cells (read-out: TNF Release Assay Avg. IC50, LPS-stimulated differentiated U937 cells, TNFα by ELISA) and 98.7 µM at MK-2.
For `O/N=C1\CCCc2c1[nH]c1ccc(I)cc21` [Example 77, 6-iodo-2,3,4,9-tetrahydro-1H-carbazol-1-one oxime], the half-maximal inhibitory concentration (IC50) in the test on U937 cells (setting [2]) came to 23.2 µM; at MK-2 it was 17 µM.
`CC(=O)Oc1ccc2[nH]c3c(c2c1)CCNC3C(=O)O` (stereo not drawn) [Example 156, 6-(acetyloxy)-2,3,4,9-tetrahydro-1H-beta-carboline-1-carboxylic acid trifluoroacetate]: the results for the IC50 in the test with U937 cells (setting [1]), in the test on U937 cells (setting [2]) and on MK-2 were 100 µM, 100 µM and 167 µM, respectively.
`O=C(O)C1NCCc2c1[nH]c1ccc(OCc3cccc(Cl)c3)cc21` (stereo not drawn) [Example 80, 6-[(3-chlorobenzyl)oxy]-2,3,4,9-tetrahydro-1H-beta-carboline-1-carboxylic acid]: the IC50 in the test on U937 cells (setting [1]) is 17.8 µM; at MK-2 it was 17.9 µM.
On to `COC(=O)C1NCCc2c1n(C)c1ccc(OC)cc21` (stereo not drawn) [Example 209, methyl 6-methoxy-9-methyl-2,3,4,9-tetrahydro-1H-beta-carboline-1-carboxylate trifluoroacetate], for which the 50% inhibitory concentration (IC50) in the test with U937 cells (setting [1]) was 88.9 µM; at MK-2, greater than 200 µM.
As for `CN(C)C(=O)COc1ccc2[nH]c3c(c2c1)CCNC3C(=O)O` (stereo not drawn) [Example 86, 6-[2-(dimethylamino)-2-oxoethoxy]-2,3,4,9-tetrahydro-1H-beta-carboline-1-carboxylic acid hydrochloride], the IC50 with U937 cells (setting [1]) was greater than 100 µM; on MK-2, 27.7 µM.
For `O=C(O)C1NCCc2c1[nH]c1ccc(OCc3ccccc3Cl)cc21` (stereo not drawn) [Example 72, 6-[(2-chlorobenzyl)oxy]-2,3,4,9-tetrahydro-1H-beta-carboline-1-carboxylic acid trifluoroacetate], the figures for the half-maximal inhibitory concentration (IC50) in the test on U937 cells (setting [1]) and at MK-2 were 7.68 µM and 15.5 µM, respectively.
Consider `COc1ccc2[nH]c3c(c2c1)CCNC3c1nnn[nH]1` (stereo not drawn) [Example 143, 6-methoxy-1-(1H-tetraazol-5-yl)-2,3,4,9-tetrahydro-1H-beta-carboline trifluoroacetate hydrate], for which the concentration for half-maximal inhibition (IC50) in the test on U937 cells (setting [1]) is no less than 100 µM; on MK-2 it was 127 µM.
Turning to `O=C(O)C1c2[nH]c3ccccc3c2CCN1C(=O)c1ccc(Cl)cc1` (stereo not drawn) [Example 202, 2-(4-chlorobenzeyl)-2,3,4,9-tetrahydro-1H-beta-carboline-1-carboxylic acid], the IC50 is greater than 100 µM with U937 cells (setting [1]) and greater than 200 µM at MK-2.
For the compound `COc1ccc2[nH]c3c(c2c1)CCC(C)/C3=N/N` (centres unmarked) [Example 134, 6-methoxy-2-methyl-2,3,4,9-tetrahydro-1H-carbazol-1-one hydrazone], the 50% inhibitory concentration (IC50) with U937 cells (setting [2]) was determined as 7.33 µM; at MK-2 it was 108 µM.
With `COc1ccc2[nH]c3c(c2c1)CC(C)(C)NC3C(=O)O` (stereo not drawn) [Example 54, 6-methoxy-3,3-dimethyl-2,3,4,9-tetrahydro-1H-beta-carboline-1-carboxylic acid], the values for the IC50 in the test on U937 cells (setting [1]) and on MK-2 were greater than 100 µM and 8.39 µM, respectively.
With `COc1ccc2[nH]c3c(c2c1)CC(CCCNCCCc1ccccc1)NC3=O` (stereo not drawn) [Example 27, 6-methoxy-3-{3-[(3-phenylpropyl)amino]propyl}-2,3,4,9-tetrahydro-1H-beta-carbolin-1-one trifluoroacetate], the figures for the IC50 in the test on U937 cells (setting [2]) and on MK-2 were 8.54 µM and 3.24 µM, respectively.
For `COc1ccc2[nH]c3c(c2c1)CC(CCCN)NC3=O` (stereo not drawn) [Example 38, 3-(3-aminopropyl)-6-methoxy-2,3,4,9-tetrahydro-1H-beta-carbolin-1-one trifluoroacetate] the same measures were 36.7 µM and 5.5 µM.
In the case of `COC(=O)COc1ccc2[nH]c3c(c2c1)CCNC3C(=O)O` (stereo not drawn) [Example 70, 6-(2-methoxy-2-oxoethoxy)-2,3,4,9-tetrahydro-1H-beta-carboline-1-carboxylic acid trifluoroacetate hydrate], the figures for the IC50 in the test with U937 cells (setting [1]) and at MK-2 were greater than 100 µM and 15.3 µM, respectively.
`COc1ccc2[nH]c3c(=O)n(N)c(=O)[nH]c3c2c1` [Example 266, 3-amino-8-methoxy-1H-pyrimido[5,4-b]indole-2,4(3H,5H)-dione]: the IC50 with U937 cells (setting [2]) was greater than 100 µM; on MK-2, greater than 200 µM.
Take `O=C(O)C1NCCc2c1[nH]c1ccc(OCc3ccncc3)cc21` (stereo not drawn) [Example 85, 6-(pyridin-4-ylmethoxy)-2,3,4,9-tetrahydro-1H-beta-carboline-1-carboxylic acid hydrochloride]: the concentration for half-maximal inhibition (IC50) in the test with U937 cells (setting [1]) was found to be 48.4 µM; on MK-2 it was 25.8 µM.
As to `COc1ccc2[nH]c3c(c2c1)CC(CCCNCCc1ccccc1)NC3=O` (centres unmarked) [Example 18, trifluoroacetate], the IC50 in the test with U937 cells (Homo sapiens, U-937, read-out: TNF Release Assay Avg. IC50, LPS-stimulated differentiated U937 cells, TNFα by ELISA) was 23.7 µM; on MK-2 it was 2.03 µM.
As to `O=C(O)C1NCCc2c1[nH]c1ccc(Br)cc21` (stereo not drawn) [Example 89, 6-bromo-2,3,4,9-tetrahydro-1H-beta-carboline-1-carboxylic acid compound with ethanol(1:1) hydrochloride], the values for the IC50 with U937 cells (setting [3]) and on MK-2 were greater than 100 µM and 28.2 µM, respectively.
As for `CCCC1CNC(C(=O)OC)c2[nH]c3ccc(OC)cc3c21` (stereo not drawn) [Example 188, methyl 6-methoxy-4-propyl-2,3,4,9-tetrahydro-1H-beta-carboline-1-carboxylate], the IC50 was 13.3 µM in the test on U937 cells (setting [1]) and greater than 200 µM on MK-2.
On to `COc1ccc2[nH]c3c(c2c1)CCC/C3=N\O` (single isomer, unassigned) [Example 75, 6-methoxy-2,3,4,9-tetrahydro-1H-carbazol-1-one oxime], for which the IC50 worked out at 13.9 µM in the test with U937 cells (setting [2]) and 16.5 µM on MK-2.
In the case of `CCCCOc1ccc2[nH]c3c(c2c1)CCNC3C(=O)O` (stereo not drawn) [Example 60, 6-butoxy-2,3,4,9-tetrahydro-1H-beta-carboline-1-carboxylic acid], the IC50 in the test with U937 cells (setting [1]) is greater than 100 µM; at MK-2, 10.1 µM.
Consider `O=C(O)C1NCCc2c1[nH]c1ccc(OCCCCl)cc21` (stereo not drawn) [Example 76, 6-(3-chloropropoxy)-2,3,4,9-tetrahydro-1H-beta-carboline-1-carboxylic acid hydrochloride], for which the IC50 with U937 cells (setting [1]) is greater than 100 µM; at MK-2, 16.7 µM.
With `CCCC1CNC(C(=O)O)c2[nH]c3ccc(OC)cc3c21` (stereo not drawn) [Example 55, 6-methoxy-4-propyl-2,3,4,9-tetrahydro-1H-beta-carboline-1-carboxylic acid], the results for the IC50 in the test with U937 cells (setting [3]) and on MK-2 were greater than 100 µM and 8.47 µM, respectively.
Take `CCn1c2c(c3cc(OC)ccc31)CCNC2C(=O)OC` (stereo not drawn) [Example 208, methyl 9-ethyl-6-methoxy-2,3,4,9-tetrahydro-1H-beta-carboline-1-carboxylate trifluoroacetate]: the IC50 in the test with U937 cells (setting [1]) was 100 µM; on MK-2 it was greater than 200 µM.
Consider `COc1ccc2[nH]c3c(c2c1)CC(CCCNCc1ccccc1)NC3=O` (stereo not drawn) [Example 62, 3-[3-(benzylamino)propyl]-6-methoxy-2,3,4,9-tetrahydro-1H-beta-carbolin-1-one trifluoroacetate], for which the IC50 was 24.9 µM in the test with U937 cells (setting [2]) and 10.5 µM at MK-2.
As to `COC(=O)C1NCCc2c1[nH]c1ccc(OCc3ccccc3)cc21` (stereo not drawn) [Example 175, methyl 6-(benzyloxy)-2,3,4,9-tetrahydro-1H-beta-carboline-1-carboxylate hydrochloride], the concentration for half-maximal inhibition (IC50) in the test with U937 cells (setting [3]) is 26.5 µM; at MK-2, greater than 200 µM.
Turning to `COc1ccc2c3c([nH]c2c1)C(C(=O)O)NCC3` (stereo not drawn) [Example 34, 7-methoxy-2,3,4,9-tetrahydro-1H-beta-carboline-1-carboxylic acid], the values for the IC50 with U937 cells (setting [1]) and at MK-2 were greater than 100 µM and 4.52 µM, respectively.
As for `COc1ccc2[nH]c3c(c2c1)CCNC3=O` [Example 69, 6-methoxy-2,3,4,9-tetrahydro-1H-beta-carbolin-1-one], the half-maximal inhibitory concentration (IC50) in the test with U937 cells (setting [2]) worked out at 45.7 µM; at MK-2, 15 µM.

For orientation: IC50 means the concentration that gives 50% inhibition.
